Where a name gives a salt, the structure may show the parent alone.

In one test the target is T1, mTOR (Homo sapiens, UniProt P42345).
T1 construct: human mTOR amino acids from 1360 to 2549; purchased Invitrogen 4753; host or cells: insect cells
T1 sequence (P42345 1360-2549): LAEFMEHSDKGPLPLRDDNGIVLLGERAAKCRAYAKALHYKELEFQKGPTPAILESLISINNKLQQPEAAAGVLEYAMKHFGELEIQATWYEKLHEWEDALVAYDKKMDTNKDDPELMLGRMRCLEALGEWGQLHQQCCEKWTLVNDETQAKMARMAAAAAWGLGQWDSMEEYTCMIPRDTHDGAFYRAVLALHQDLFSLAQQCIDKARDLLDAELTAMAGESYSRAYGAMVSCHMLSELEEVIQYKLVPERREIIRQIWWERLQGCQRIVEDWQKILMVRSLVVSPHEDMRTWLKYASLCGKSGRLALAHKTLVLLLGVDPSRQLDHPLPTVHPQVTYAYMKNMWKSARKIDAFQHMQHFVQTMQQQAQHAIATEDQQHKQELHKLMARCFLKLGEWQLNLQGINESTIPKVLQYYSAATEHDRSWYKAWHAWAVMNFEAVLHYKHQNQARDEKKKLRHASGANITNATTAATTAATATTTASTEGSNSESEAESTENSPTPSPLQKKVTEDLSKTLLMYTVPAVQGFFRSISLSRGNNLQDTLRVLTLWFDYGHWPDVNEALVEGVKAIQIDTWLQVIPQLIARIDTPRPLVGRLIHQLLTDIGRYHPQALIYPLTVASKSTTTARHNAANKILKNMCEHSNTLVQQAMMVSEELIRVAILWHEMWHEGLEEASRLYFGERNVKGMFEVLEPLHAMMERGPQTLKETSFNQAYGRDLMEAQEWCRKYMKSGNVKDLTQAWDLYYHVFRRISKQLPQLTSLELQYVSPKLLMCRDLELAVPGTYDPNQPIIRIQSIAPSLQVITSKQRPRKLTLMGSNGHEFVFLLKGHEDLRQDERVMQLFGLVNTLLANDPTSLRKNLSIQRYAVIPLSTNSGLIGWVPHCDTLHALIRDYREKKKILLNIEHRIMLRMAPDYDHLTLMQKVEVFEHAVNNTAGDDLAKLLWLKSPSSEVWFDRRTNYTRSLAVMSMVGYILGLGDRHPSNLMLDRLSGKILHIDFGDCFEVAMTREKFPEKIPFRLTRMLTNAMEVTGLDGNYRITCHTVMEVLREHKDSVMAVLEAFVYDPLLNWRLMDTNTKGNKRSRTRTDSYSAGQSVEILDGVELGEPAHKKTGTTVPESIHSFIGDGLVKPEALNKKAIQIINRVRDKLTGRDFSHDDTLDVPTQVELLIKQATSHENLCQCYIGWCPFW
Put plainly: mTOR kinase assay (TR-FRET, for comparative purposes). The format is biochemical. To be noted: mean inhibition at 1 μM test compound, 40 μM ATP. Background: In TR-FRET formats the signal depends on donor and acceptor labels being close together.
Turning to `COc1cc(C)cc2cc(-c3c(CNCC(C)(C)O)c(C)n4ncnc(N)c34)sc12` [Example 78, 1-({[4-Amino-5-(7-methoxy-5-methyl-1-benzothiophen-2-yl)-7-methylpyrrolo[2,1-f][1,2,4]triazin-6-yl]methyl}amino)-2-methylpropan-2-ol], the “mTOR % inhibition @ 1 μM” value amounted to 5.8%.

Regarding `COc1cc(C)cc2cc(-c3c(CNCC(C)(C)O)c(Cl)n4ncnc(N)c34)sc12` [Example 82, 1-({[4-Amino-7-chloro-5-(7-methoxy-5-methyl-1-benzothiophen-2-yl)pyrrolo[2,1-f][1,2,4]triazin-6-yl]methyl}amino)-2-methylpropan-2-ol], the “mTOR % inhibition @ 1 μM” value was determined as 7.1%.

The test is the same for the next values; noted with them: read-out: mTOR % inhibition @ 1 μM, mean inhibition at 1 μM test compound, 40 μM ATP.
A word on the inhibition: it is the share of the control response that was lost under treatment. `COc1cc(C)cc2cc(-c3c(CNC(C)=O)c(CN4CCN(C(C)=O)CC4)n4ncnc(N)c34)sc12` [Example 66, N-({7-[(4-Acetylpiperazin-1-yl)methyl]-4-amino-5-(7-methoxy-5-methyl-1-benzothiophen-2-yl)pyrrolo[2,1-f][1,2,4]triazin-6-yl}methyl)acetamide]: the inhibition at 1 µM came out at 15.8%.

Turning to `COCc1c(-c2cc3cc(C)cc(OC)c3s2)c2c(N)ncnn2c1C#N` [Example 69, 4-Amino-6-(methoxymethyl)-5-(7-methoxy-5-methyl-1-benzothiophen-2-yl)pyrrolo[2,1-f][1,2,4]-triazine-7-carbonitrile], the inhibition at 1 µM came out at 8.7%.

As to `CCOCc1c(-c2cc3cc(C)cc(OC)c3s2)c2c(N)ncnn2c1C#N` [Example 70, 4-Amino-6-(ethoxymethyl)-5-(7-methoxy-5-methyl-1-benzothiophen-2-yl)pyrrolo[2,1-f][1,2,4]-triazine-7-carbonitrile], the inhibition at 1 µM turned out to be 5.8%.

Take `COc1cc(C)cc2cc(-c3c(CN4CCNC(=O)C4)c(C#N)n4ncnc(N)c34)sc12` [Example 71, 4-Amino-5-(7-methoxy-5-methyl-1-benzothiophen-2-yl)-6-[(3-oxopiperazin-1-yl)methyl]pyrrolo[2,1-f][1,2,4]triazine-7-carbonitrile]: the inhibition at 1 µM turned out to be 0.1%.

For the molecule `COc1cc(C)cc2cc(-c3c(CN4CCNC(=O)C4)c(Cl)n4ncnc(N)c34)sc12` [Example 80, 4-{[4-Amino-7-chloro-5-(7-methoxy-5-methyl-1-benzothiophen-2-yl)pyrrolo[2,1-f][1,2,4]triazin-6-yl]methyl}piperazin-2-one], the inhibition at 1 µM is 3.9%.

Consider `CCOCc1c(-c2cc3cc(C)cc(OC)c3s2)c2c(N)ncnn2c1Cl` [Example 83, 7-Chloro-6-(ethoxymethyl)-5-(7-methoxy-5-methyl-1-benzothiophen-2-yl)pyrrolo[2,1-f][1,2,4]-triazin-4-amine], for which the inhibition at 1 µM was found to be 6.3%.

As to `COc1cc(C)cc2cc(-c3c(Cl)c(CN4CCNCC4)n4ncnc(N)c34)sc12` [Example 85, 6-Chloro-5-(7-methoxy-5-methyl-1-benzothiophen-2-yl)-7-(piperazin-1-ylmethyl)pyrrolo[2,1-f]-[1,2,4]triazin-4-amine trihydrochloride], the inhibition at 1 µM worked out at 0.9%.

As to `CCOCc1c(-c2cc3cc(C)cc(OC)c3s2)c2c(N)ncnn2c1CN1CCNC1=O` [Example 87, 1-{[4-Amino-6-(ethoxymethyl)-5-(7-methoxy-5-methyl-1-benzothiophen-2-yl)pyrrolo[2,1-f][1,2,4]-triazin-7-yl]methyl}imidazolidin-2-one], the inhibition at 1 µM is 12.7%.

As to `COCc1c(-c2cc3cccc(OC)c3s2)c2c(N)ncnn2c1CN1CCNC(=O)C1` [Example 88, 4-{[4-Amino-5-(7-methoxy-1-benzothiophen-2-yl)-6-(methoxymethyl)pyrrolo[2,1-f][1,2,4]triazin-7-yl]methyl}piperazin-2-one], the inhibition at 1 µM came to 5.3%.

Turning to `CCOCc1c(-c2cc3cc(C)cc(OC)c3s2)c2c(N)ncnn2c1CN[C@H]1CCNC1=O` [Example 93, (3S)-3-({[4-Amino-6-(ethoxymethyl)-5-(7-methoxy-5-methyl-1-benzothiophen-2-yl)pyrrolo[2,1-f]-[1,2,4]triazin-7-yl]methyl}amino)pyrrolidin-2-one], the inhibition at 1 µM was determined as 12.5%.

The values above are taken from US20220153745A1, “DISUBSTITUTED BENZOTHIENYL-PYRROLOTRIAZINES AND THEIR USE AS FGFR KINASE INHIBITORS” (Bayer Intellectual Property GmbH, priority 2011, published 2022).
